Experiments:
Assay in all cases: relative viability (nuclei count vs DMSO), 5 days (fraction); higher = more cells survive
AGI-6780 + Tozasertib = compound: O=C(Nc1cccc(C(F)(F)F)c1)Nc1cc(S(=O)(=O)NC2CC2)ccc1-c1ccsc1 [AGI-6780] + Cc1cc(Nc2cc(N3CCN(C)CC3)nc(Sc3ccc(NC(=O)C4CC4)cc3)n2)n[nH]1 [Tozasertib] (partner 0.1 µM)
How it was run: (§1)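 The day after seeding in 1536-well plates, lung cancer cell lines were treated by pin tool with a single drug, or with a fixed anchor-drug dose together with five library-drug doses (not always all listed) in √10 steps. After 5 days, a combined fix-and-stain solution (final 0.05% Triton X-100, 1% formaldehyde, 1 ug/ml Hoechst) was added. Nuclei counted on 4× images gave relative viability as treated counts over vehicle counts, reported as the median of duplicate plates.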

AGI-6780 + Bortezomib = compound: O=C(Nc1cccc(C(F)(F)F)c1)Nc1cc(S(=O)(=O)NC2CC2)ccc1-c1ccsc1 [AGI-6780] + CC(C)C[C@H](NC(=O)[C@H](Cc1ccccc1)NC(=O)c1cnccn1)B(O)O [Bortezomib] (partner 0.002 µM)
How it was run: as §1

AGI-6780 + Decitabine = compound: O=C(Nc1cccc(C(F)(F)F)c1)Nc1cc(S(=O)(=O)NC2CC2)ccc1-c1ccsc1 [AGI-6780] + Nc1ncn([C@H]2C[C@H](O)[C@@H](CO)O2)c(=O)n1 [Decitabine] (partner 2 µM)
How it was run: as §1

AGI-6780 + AZD7762 = compound: O=C(Nc1cccc(C(F)(F)F)c1)Nc1cc(S(=O)(=O)NC2CC2)ccc1-c1ccsc1 [AGI-6780] + NC(=O)Nc1cc(-c2cccc(F)c2)sc1C(=O)N[C@H]1CCCNC1 [AZD7762] (partner 0.2 µM)
How it was run: as §1

Cell Line	relative viability (AGI-6780 + Tozasertib; first compound 0.08 µM)	relative viability (AGI-6780 + Tozasertib; first compound 0.253 µM)	relative viability (AGI-6780 + Tozasertib; first compound 0.8 µM)	relative viability (AGI-6780 + Tozasertib; first compound 2.53 µM)	relative viability (AGI-6780 + Tozasertib; first compound 8 µM)	relative viability (AGI-6780 + Bortezomib; first compound 0.08 µM)	relative viability (AGI-6780 + Bortezomib; first compound 0.253 µM)	relative viability (AGI-6780 + Bortezomib; first compound 0.8 µM)	relative viability (AGI-6780 + Bortezomib; first compound 2.53 µM)	relative viability (AGI-6780 + Bortezomib; first compound 8 µM)	relative viability (AGI-6780 + Decitabine; first compound 0.08 µM)	relative viability (AGI-6780 + Decitabine; first compound 0.253 µM)	relative viability (AGI-6780 + Decitabine; first compound 0.8 µM)	relative viability (AGI-6780 + Decitabine; first compound 2.53 µM)	relative viability (AGI-6780 + Decitabine; first compound 8 µM)	relative viability (AGI-6780 + AZD7762; first compound 0.08 µM)	relative viability (AGI-6780 + AZD7762; first compound 0.253 µM)	relative viability (AGI-6780 + AZD7762; first compound 0.8 µM)	relative viability (AGI-6780 + AZD7762; first compound 8 µM)	relative viability (AGI-6780 + AZD7762; first compound 2.53 µM)
NCI-H2023	0.329	0.48	0.358	0.212	0.25	0.994	1.1	1.09	0.92	1.06	0.208	0.238	0.256	0.233	0.239					
BEN	0.526	0.497	0.503	0.433	0.425	0.657	0.813	0.852		0.754	0.662	0.757	0.722		0.836	0.6	0.737	0.754	0.721	
RERF-LC-KJ	0.506	0.619	0.461	0.452	0.34	1.06	1.16	1.15	0.798	1.09	0.634	0.698	0.829	0.644	0.611	0.853	0.811	1.04	0.952	0.777
SK-MES-1	1.02	0.961	1	0.88	0.747						0.364	0.382	0.462	0.294	0.377					
PC-14	0.57	0.583	0.658	0.582	0.569	0.899	0.71	0.917	0.793	0.934	0.22	0.226	0.295	0.217	0.198	0.355	0.33	0.453	0.397	0.455
NCI-H1437	0.486	0.42	0.428	0.408	0.391	0.562	0.569	0.703	0.563	0.747	0.572	0.587	0.594	0.583	0.576	1.11	1.11	1.28	1.17	1.16
NCI-H1993	0.547	0.588	0.623	0.464	0.536	1.09	1.13	1.25	0.764	1.12	0.593	0.57	0.595		0.688	0.681	1.05	1.01	0.928	
LK-2	0.178	0.16	0.147		0.162						0.282	0.402	0.322		0.477	0.374	0.412	0.63	0.501	
NCI-H838	0.321	0.244	0.295	0.276	0.224	0.965	0.692	0.952	1.05	1.18	0.445	0.495	0.479	0.506	0.47	0.988	0.903	0.919	0.909	0.932
